Assay results from US11472771B2, “Process for making amino diaryl ethers and amino diaryl ethers hydrochloride salts” (CELLESTIA BIOTECH AG, priority 2018, dated 2022).

What was measured:
Type in all cases: physicochemical
[1] = Accelerated stability study, storage 40° C., 75% rh; conditions: 6 months stability studies
Method: (§1) For 6-(4-(tert-butyl)phenoxy)pyridin-3-amine monohydrochloride two different types of stability studies were performed including short-term and long-term stability studies, respectively, at 25° C. (RH, 60%), −5° C. and −20° C. for 36 months and an accelerated study at 40° C. (RH, 75%) over 6 months. In terms of analytical determinations six tests were involved including appearance, assay free base mean and purity mean, water, IR and XRPD. Appearance was determined by visual inspection. The product should be a white or off-white powder. Water content was determined according to USP <921> coulometric method. Identification of 6-(4-(tert-butyl)phenoxy)pyridin-3-amine monohydrochloride by IR spectroscopy was done according to USP <197>, comparing the spectrum obtained to that of the reference standard. X-Ray powder diffraction (XRPD) was performed according to USP <941> against the reference XRPD spectrum. Purity and assay of free base was done by HPLC-UV. Two methods were used. Mobile phases in the first method were water and acetonitrile. Mobile phases in the second method were water (0.5 mL of trifluoroacetic acid was added to 1000 mL of water) and acetonitrile (0.4 mL of trifluoroacetic acid was added to 1000 mL of acetonitrile). Equipment and chromatographic conditions for identification and determination of purity and assay of the 6-(4-(tert-butyl)phenoxy)pyridin-3-amine monohydrochloride by HPLC-UV according to the first method and the second method, respectively, are shown in Tables 5 and 6. [table] [table]

[2] = Stability study, storage 25° C., 60% rh
Method: as §1

[3] = Stability study, storage −20° C.
Method: as §1

[4] = Solubility in water at various pH-values; conditions: for calculated concentration charged: soluble
Method: The solubilities in water of 6-(4-(tert-butyl)phenoxy)pyridin-3-amine (formula (Ia)) and the monohydrochloride salt thereof, i.e. 6-(4-(tert-butyl)phenoxy)pyridin-3-amine monohydrochloride, were assessed at various pH-values according to Tables 3 and 4. The solubility in water of 6-(4-(tert-butyl)phenoxy)pyridin-3-amine (formula (Ia)) according to Table 3 was assayed as follows: Free base 500 mg were charged into 14 mL of acidic media at pH=2, 4, at neutral pH=7 and basic pH=10 to afford suspensions within calculated concentration of appr. 35 mg/mL. The solubility in water of 6-(4-(tert-butyl)phenoxy)pyridin-3-amine monohydrochloride according to Table 4 was assayed as follows: HCl salt 100 mg each were charged into acidic media at pH=2 and 4 and neutral media pH=7 to furnish solutions. Most important observation was to that at a neutral solution at pH=7 drops down to pH=1 by charging HCl salt 100 mg.

[5] = 6 months stability studies, 25° C., 60% rh, 3 mths
[6] = 6 months stability studies, 25° C., 60% rh, 6 mths
[7] = 6 months stability studies, 25° C., 60% rh, Release data
[8] = 36 months stability studies, 25° C. 60% rh, 6 mths
[9] = 36 months stability studies, 25° C. 60% rh, 9 mths
[10] = 36 months stability studies, 25° C. 60% rh, 12 mths
[11] = 36 months stability studies, 25° C. 60% rh, 18 mths
[12] = 36 months stability studies, 25° C. 60% rh, 24 mths
[13] = 6 months stability studies, 3 mths
[14] = 6 months stability studies, 6 mths
[15] = 6 months stability studies, Release data
[16] = 36 months stability studies, 6 mths
[17] = 36 months stability studies, 9 mths
[18] = 36 months stability studies, 12 mths
[19] = 36 months stability studies, 18 mths
[20] = 36 months stability studies, 24 mths
[21] = 15% acetic acid soln., pH solvent 2, 100 mg in 0.6 ml
[22] = Fluka 33643 (pH = 4), 100 mg in 1.4 ml
[23] = Fluka 33646 (pH = 7), 100 mg in 1.0 ml

CC(C)(C)c1ccc(Oc2ccc(N)cn2)cc1.Cl [6-(4-(tert-butyl)phenoxy)pyridin-3-amine monohydrochloride]
Assay free base, mean ([1]; 3 mths): 89.2 % m/m
IR, conforms to reference ([1]; 3 mths): complies
Purity, mean ([1]; 3 mths): 99.6 % area
Water ([1]; 3 mths): 0.01 % m/m
Assay free base, mean ([1]; 6 mths): 87.4 % m/m
IR, conforms to reference ([1]; 6 mths): complies
Purity, mean ([1]; 6 mths): 98.9 % area
Water ([1]; 6 mths): 0.02 % m/m
XRPD, conforms to reference ([1]; 6 mths): complies
Assay free base, mean ([1]; Release data): 87.0 % m/m
IR, conforms to reference ([1]; Release data): complies
Purity, mean ([1]; Release data): 99.2 % area
Water ([1]; Release data): 0.02 % m/m
Assay free base, mean [2, 5]: 88.8 % m/m
IR, conforms to reference [2, 5]: complies
Purity, mean [2, 5]: 99.5 % area
Water [2, 5]: 0.01 % m/m
Assay free base, mean [2, 6]: 87.2 % m/m
IR, conforms to reference [2, 6]: complies
Purity, mean [2, 6]: 98.8 % area
Water [2, 6]: 0.01 % m/m
Assay free base, mean [2, 7]: 87.0 % m/m
IR, conforms to reference [2, 7]: complies
Purity, mean [2, 7]: 99.2 % area
Water [2, 7]: 0.02 % m/m
Water ([2]; 36 months stability studies, 25° C. 60% rh, 3 mths): 0.01 % m/m
Assay free base, mean [2, 8]: 88.6 % m/m
Purity, mean [2, 8]: 100.0 % area
Water [2, 8]: 0.01 % m/m
Assay free base, mean [2, 9]: 88.0 % m/m
Purity, mean [2, 9]: 100.0 % area
Water [2, 9]: 0.02 % m/m
Assay free base, mean [2, 10]: 86.9 % m/m
Purity, mean [2, 10]: 100.0 % area
Water [2, 10]: 0.02 % m/m
Assay free base, mean [2, 11]: 87.7 % m/m
Purity, mean [2, 11]: 100.0 % area
Water [2, 11]: 0.02 % m/m
Assay free base, mean [2, 12]: 87.6 % m/m
Water [2, 12]: 0.02 % m/m
Purity, mean ([2]; 36 months stability studies, 25° C. 60% rh, 24 mths, monohydrochloride): 100 % area
Water ([2]; 36 months stability studies, 25° C. 60% rh, Release data): 0.02 % m/m
Assay free base, mean [3, 13]: 86.1 % m/m
IR, conforms to reference [3, 13]: complies
Purity, mean [3, 13]: 99 % area
Water [3, 13]: 0.02 % m/m
Assay free base, mean [3, 14]: 87.3 % m/m
IR, conforms to reference [3, 14]: complies
Purity, mean [3, 14]: 99 % area
Water [3, 14]: 0.02 % m/m
Assay free base, mean [3, 15]: 89.4 % m/m
IR, conforms to reference [3, 15]: complies
Purity, mean [3, 15]: 100 % area
Water [3, 15]: 0.01 % m/m
Water ([3]; 36 months stability studies, 3 mths): 0.02 % m/m
Assay free base, mean [3, 16]: 87.4 % m/m
Purity, mean [3, 16]: 100.0 % area
Water [3, 16]: 0.02 % m/m
Assay free base, mean [3, 17]: 88.6 % m/m
Purity, mean [3, 17]: 100.0 % area
Water [3, 17]: 0.03 % m/m
Assay free base, mean [3, 18]: 87.5 % m/m
Purity, mean [3, 18]: 100.0 % area
Water [3, 18]: 0.02 % m/m
Assay free base, mean [3, 19]: 87.4 % m/m
Purity, mean [3, 19]: 100.0 % area
Water [3, 19]: 0.01 % m/m
Assay free base, mean [3, 20]: 87.4 % m/m
Purity, mean [3, 20]: 100.0 % area
Water [3, 20]: 0.02 % m/m
Water ([3]; 36 months stability studies, Release data): 0.01 % m/m
pH solution [4, 21]: 0
soluble ([4]; 15% acetic acid soln., pH solvent 2, 100 mg in 0.6 ml, conc. 166.66 mg/mL): yes
calculated concentration charged [4, 21]: 166.66 mg/mL
pH solution [4, 22]: 1
soluble ([4]; Fluka 33643 (pH = 4), 100 mg in 1.4 ml, conc. 71.43 mg/mL): yes
calculated concentration charged [4, 22]: 71.43 mg/mL
pH solution [4, 23]: 1
soluble ([4]; Fluka 33646 (pH = 7), 100 mg in 1.0 ml, conc. 100.00 mg/mL): yes
calculated concentration charged [4, 23]: 100.00 mg/mL
solubility in water ([4]; water, in words): well-soluble
